According to patent US20020091086A1, “Peptides that block viral infectivity and methods of use thereof” (priority 1999, published 2002):
Read-outs that look alike come from different tables or passages of the source. Peptide text beside a SMILES is read from it.

Tests used:
HIV-1 [1] = settings: 100 μM, H9 cells
Source text: In this example, the methods that were used to analyze the ability of various tripeptides to inhibit HIV-1, HIV-2, and SIV replication are disclosed. In Experiments 1 and 2, approximately 200,000 H9 cells were infected with HIV-1, HIV-2 or SIV at 25 TCID50 to test the inhibitory effect of the following synthesized tripeptides LKA-NH2, ILK-NH2, GPQ-NH2, GHK-NH2, GKG-NH2, ACQ-NH2, CQG-NH2, ARV-NH2, KAR-NH2, HKA-NH2, GAT-NH2, KAL-NH2, and GPG-NH2. Accordingly, the H9 cells were resuspended with or without the different peptides (approximately 100 μM) in 1 ml of RPMI 1640 medium supplemented with 10% (v/v) heat-inactivated fetal bovine serum (FBS), penicillin (100 u/ml), and streptomycin (100 u/ml), all available through GIBCO, and Polybrene (2 μg/ml), available through Sigma. Thereafter, viruses were added at 25 TCID50 in a volume of 20-30μl. Cells were incubated with virus at 37° C. for 1 hr then pelleted at 170×g for 7 minutes. The cells were then washed three times in RPMI medium without peptides at room temperature and pelleted at 170×g for 7 minutes, as above. After the final wash, the cells were resuspended in RPMI culture medium containing the peptides in a 24-well plate (Costar corporation) and were kept at 37° C. in 5% CO2 with humidity.
Culture supernatants were collected and analyzed when the medium was changed at 4, 7, 10, and 14 days post infection. To monitor the replication of virus, reverse transcriptase (RT) activity in the supernatants was assayed using a commercially available Lenti-RT activity kit. (Cavidi Tech, Uppsala, Sweden). The amount of RT was determined with the aid of a regression line of standards. The results are presented as absorbance values (OD) and higher absorbance indicates a higher protein concentration and greater viral infection. Syncytium formation was also monitored by microscopic examination.

SIV = SIV infectivity assay in H9 cells, RT activity in supernatant; type: cell-based; settings: for SIV infection, result in words: summary of Experiments 1-3
HIV-2 = HIV-2 infectivity assay in H9 cells, RT activity in supernatant; type: cell-based; settings: for HIV-2 infection, result in words: summary of Experiments 1-3
HIV-1 specific protease = HIV-1 specific protease (Human immunodeficiency virus type 1 group M subtype B, UniProt P04585); assay: activity of the HIV-1 specific protease; type: biochemical
human mononuclear cells = assay: in vitro proliferative response of human mononuclear cells; type: cell-based; settings: 20 μM
Experimental: Next, the toxicity to normal human lymphomonocytic cells (PBMC) was examined. […] The effect of GPG-NH2 on in vitro proliferative response of human mononuclear cells was also tested.

HSV-1 = type: cell-based; settings: concentrations up to 1 mM
[2] = acid stability in 50 mM KCl and 0.1M HCl by TLC; type: physicochemical; settings: up to 24 hours
Experimental: Because an oral administration of a pharmaceutical comprising a small peptide is desired, the acid stability of small peptides was assessed by incubating ^14C-labelled GPG-NH2 in a solution of 50 mM KCl and 0.1M HCl for various time periods. After acid hydrolysis, the radiolabeled tripeptide was analyzed by thin layer chromatography (TLC) and the HPTLC plate was developed with 25% methanol: 25%isopropanol: 15% butanol: 35% (0.1N HOAc and 0.1N NaOAc).

HIV-1 [3] = settings: Experiment 6; Day 7 HIV-1; 100 μM; HUT78 cells
Experimental: In experiment 6 (Table 7 and FIG. 1), approximately 200,000 HUT78 cells were infected with HIV-1 at 25 TCID50 to test the inhibitory effect of GPG-NH2, RQG-NH2, KQG-NH2, ALG-NH2, GVG-NH2, VGG-NH2, ASG-NH2, SLG-NH2, and SPT-NH2. The HUT cells were resuspended in lml of RPMI 1640 medium supplemented with 10% (v/v) heat-inactivated fetal bovine serum (FBS, GIBCO), penicillin (100 u/ml), streptomycin (100 u/ml) and Polybrene (Sigma, 2 μg/ml) with or without the presence of the different small peptides (100 μM) mentioned above. Thereafter, the HIV-1 virus was added at 25 TCID50 in a volume of 20 μl. Cells were incubated with the virus at 37° C. for one hour and, subsequently, the cells were pelleted at 170×g for seven minutes. The cells were then washed three times in RPMI medium without peptides at room temperature by cell sedimentation at 170×g for seven minutes, as above. After the final wash, the cells were resuspended in RPMI culture medium containing the peptides in 24-well plate (Costar corporation) and were kept at 37° C. in 5% CO2 with humidity. Culture supernatants were collected when medium was changed at day 4, 7, and 11 post infection and viral p24 production was monitored by using an HIV-1 p24 ELISA kit (Abbott Laboratories, North Chicago, USA).

[4] = tested on: HIV-1 isolate p7261 (low AZT); assay: resistant HIV-1 isolates in PBMC, p24 ELISA; type: cell-based; settings: GPG 100 μM, 14 days post infection
[5] = Experiment 3, 5 μM (of each tripeptide)
[6] = Experiment 3, 20 μM (of each tripeptide)

Compound	HIV-1 Syncytia (HIV-1 [1]; Experiment 1)	HIV-1 Syncytia (HIV-1 [1]; Experiment 2)	Day 7 RT SIV (SIV; Experiment 1, 100 μM)	Day 10 RT SIV (SIV; Experiment 1, 100 μM)	Day 7 RT SIV (SIV; Experiment 2, 100 μM)	Day 10 RT SIV (SIV; Experiment 2, 100 μM)	Day 7 RT SIV (SIV; [5])	Day 10 RT SIV (SIV; [5])	Day 7 RT SIV (SIV; [6])	Day 10 RT SIV (SIV; [6])	SIV infection, result in words (SIV)	Day 7 RT HIV-2 (HIV-2; Experiment 1, 100 μM)	Day 10 RT HIV-2 (HIV-2; Experiment 1, 100 μM)	Day 7 RT HIV-2 (HIV-2; Experiment 2, 100 μM)	Day 10 RT HIV-2 (HIV-2; Experiment 2, 100 μM)	Day 7 RT HIV-2 (HIV-2; [5])	Day 10 RT HIV-2 (HIV-2; [5])	Day 7 RT HIV-2 (HIV-2; [6])	Day 10 RT HIV-2 (HIV-2; [6])	HIV-2 infection, result in words (HIV-2)	also measured
NCCCC[C@H](NC(=O)CN)C(=O)NCC(N)=O [GKG-NH2, glycyl-lysyl-glycine amide] (H-Gly-Lys-Gly-NH2)	neg	neg	0.421 OD	0.099 OD	0.116 OD	0.204 OD	0.271 OD	1.709 OD	1.531 OD	2.482 OD	inhibit or prevent HIV-2 and SIV infection	0.160 OD	0.147 OD	0.283 OD	1.637 OD	1.769 OD	2.510 OD	1.759 OD	2.646 OD	inhibit or prevent HIV-2 and SIV infection	Day 7 RT SIV (SIV; Experiment 3, 100 μM): 1.005 OD; Day 10 RT SIV (SIV; Experiment 3, 100 μM): 1.382 OD; Day 7 RT HIV-2 (HIV-2; Experiment 3, 100 μM): 0.828 OD; Day 10 RT HIV-2 (HIV-2; Experiment 3, 100 μM): 1.947 OD
NCC(=O)N1CCC[C@H]1C(=O)NCC(N)=O [GPG-NH2, glycyl-prolyl-glycine amide] (H-Gly-Pro-Gly-NH2)	neg	neg	0.138 OD	0.103 OD	0.067 OD	0.139 OD	0.753 OD	2.201 OD	0.197 OD	0.779 OD	inhibit or prevent HIV-2 and SIV infection	0.735 OD	0.145 OD	0.093 OD	0.575 OD	1.735 OD	2.329 OD	0.252 OD	1.305 OD	inhibit or prevent HIV-2 and SIV infection	activity of the HIV-1 specific protease (HIV-1 specific protease): not to affect; anti-proliferative properties on T cells (human mononuclear cells): marginal if any direct anti-proliferative properties; function of accessory cells (monocytes and dendritic cells) (human mononuclear cells): did not affect the function of accessory cells; HSV-1 replication (HSV-1): failed to reduce HSV-1 replication; TLC mobility after acid exposure [2]: did not affect the mobility; p24 (HIV-1 [3]): 560 pg/mL; reduction (%) (HIV-1 [3]): 97%; % reduction [4]: (100%); HIV-1 p24 [4]: <500 pg/mL
cystyl-glutaminyl-glycine amide [CQG-NH2]	neg	neg	0.747 OD	0.110 OD	0.120 OD	1.761 OD	1.159 OD	2.821 OD	0.615 OD	2.158 OD	inhibit or prevent HIV-2 and SIV infection	0.217 OD	0.296 OD	1.241 OD	2.501 OD	1.760 OD	2.466 OD	1.748 OD	2.721 OD	inhibit or prevent HIV-2 and SIV infection	Day 7 RT SIV (SIV; Experiment 3, 100 μM): 0.795 OD; Day 10 RT SIV (SIV; Experiment 3, 100 μM): 2.286 OD; Day 7 RT HIV-2 (HIV-2; Experiment 3, 100 μM): 1.715 OD; Day 10 RT HIV-2 (HIV-2; Experiment 3, 100 μM): 2.815 OD
